# Experimental data: the supplement of paper PMC11061612
# How the values were obtained:
# Assay in all cases: Bliss excess, mean over the matrix (fraction); higher = more synergy
# A204 (Rhabdomyosarcoma) = system: A204 (Rhabdomyosarcoma)
# How it was run: (§1)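 Cell lines in DMEM/F12 or RPMI with 10% FBS were plated in 1536-well plates, held 24 hours at 37°C, 5% CO2, then given two-drug dose matrices for 72 hours (DMSO typically 0.2%). Viability was read by CellTiter-Glo 2.0 luminescence and scaled as inhibition from 0 (vehicle wells) to 1 (blank wells). Combination Emax is the second-highest inhibition in the matrix; Bliss excess is observed combination effect minus expected EA + EB − EA·EB, EA and EB being single-agent effects.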
# [1] = system: KYSE-220 (Esophageal Squamous Cell Carcinoma)
# How it was run: as §1
# [2] = system: JHU-022 (Oral Cavity Carcinoma)
# How it was run: as §1
# [3] = system: JVM-2 (B-Cell Non-Hodgkin's Lymphoma)
# How it was run: as §1
# [4] = system: Jurkat (T-Lymphoblastic Leukemia)
# How it was run: as §1
# EW-16 (Ewing's Sarcoma) = system: EW-16 (Ewing's Sarcoma)
# How it was run: as §1
# KP-N-YN (Neuroblastoma) = system: KP-N-YN (Neuroblastoma)
# How it was run: as §1
# [5] = system: JIMT-1 (Breast Carcinoma)
# How it was run: as §1
# RH-41 (Rhabdomyosarcoma) = system: RH-41 (Rhabdomyosarcoma)
# How it was run: as §1
# [6] = system: LS-411N (Colorectal Carcinoma)
# How it was run: as §1
# [7] = system: GCT (Other Solid Carcinomas)
# How it was run: as §1
# [8] = system: EPLC-272H (Other Solid Carcinomas)
# How it was run: as §1
# [9] = system: LU-165 (Small Cell Lung Carcinoma)
# How it was run: as §1
# NB13 (Neuroblastoma) = system: NB13 (Neuroblastoma)
# How it was run: as §1
# [10] = system: NCI-H2087 (Lung Adenocarcinoma)
# How it was run: as §1
# [11] = system: NCI-H2228 (Lung Adenocarcinoma)
# How it was run: as §1
# 5637 (Bladder Carcinoma) = system: 5637 (Bladder Carcinoma)
# How it was run: as §1
# [12] = system: 22RV1 (Prostate Carcinoma)
# How it was run: as §1
# IM-9 (Non-Cancerous) = system: IM-9 (Non-Cancerous)
# How it was run: as §1
# [13] = system: JHH-2 (Hepatocellular Carcinoma)
# How it was run: as §1
Compound,Bliss excess (A204 (Rhabdomyosarcoma)),Bliss excess [1],Bliss excess [2],Bliss excess [3],Bliss excess [4],Bliss excess (EW-16 (Ewing's Sarcoma)),Bliss excess (KP-N-YN (Neuroblastoma)),Bliss excess [5],Bliss excess (RH-41 (Rhabdomyosarcoma)),Bliss excess [6],Bliss excess [7],Bliss excess [8],Bliss excess [9],Bliss excess (NB13 (Neuroblastoma)),Bliss excess [10],Bliss excess [11],Bliss excess (5637 (Bladder Carcinoma)),Bliss excess [12],Bliss excess (IM-9 (Non-Cancerous)),Bliss excess [13]
"CC1(C)CCC(CN2CCN(c3ccc(C(=O)NS(=O)(=O)c4ccc(NCC5CCOCC5)c([N+](=O)[O-])c4)c(Oc4cnc5[nH]ccc5c4)c3)CC2)=C(c2ccc(Cl)cc2)C1 [Venetoclax] + C1CN(CCC1(C(=O)N[C@@H](CCO)C2=CC=C(C=C2)Cl)N)C3=NC=NC4=C3C=CN4 [Capivasertib] (first compound max 1 µM, 7x7, partner max 3 µM)",-0.0358,-0.0023,-0.0729,-0.0118,-0.016,-0.0498,-0.0573,-0.0836,0.0441,-0.0139,-0.0401,-0.0465,-0.0268,-0.0288,-0.0553,-0.0537,-0.0513,-0.0475,0.0533,0.0139
"Cc1c2c(nn1C)CSCc1cc(n(C)n1)CSc1cc(c3ccccc3c1)OCCCc1c(C(=O)O)n(C)c3c-2c(Cl)ccc13 [AZD5991] + CN(C)CCCOc1ccc(-c2ccc3ncc4c(c3c2)n(C2CCOCC2)c(=O)n4C)cn1 [AZD0156] (first compound max 1 µM, 7x7, partner max 1 µM)",0.0048,-0.0053,-0.0079,-0.0266,-0.0219,-0.0014,-0.0752,-0.0129,0.0044,-0.0058,0.0338,0.0047,0.0147,0.0007,0.005,-0.0096,-0.0014,-0.167,-0.0637,0.0012
"COc1nnc2ccc(N3CCC(c4ccc(OCCN5CCN(C)C(=O)[C@H]5C)cc4)CC3)nn12 [AZD5153] + C[C@@H]1COCCN1C2=NC(=NC(=C2)C3(CC3)[S@](=N)(=O)C)C4=C5C=CNC5=NC=C4 [AZD6738] (first compound max 1 µM, 7x7, partner max 10 µM)",0.042,0.0019,-0.0134,-0.061,0.0601,0.0667,-0.0174,0.0465,0.0514,0.0754,0.029,-0.0629,-0.0048,-0.0149,0.0404,-0.0179,-0.0001,-0.0019,-0.0697,-0.0066
"CC(=O)Nc1cccc(-n2c(=O)n(C3CC3)c(=O)c3c(Nc4ccc(I)cc4F)n(C)c(=O)c(C)c32)c1 [Trametinib] + Cc1nc(-c2cn3c(n2)-c2ccc(-c4cnn(C(C)(C)C(N)=O)c4)cc2OCC3)n(C(C)C)n1 [Taselisib] (first compound max 1 µM, 7x7, partner max 10 µM)",0.149,0.152,0.0194,0.0171,0.0414,0.0772,0.0046,0.11,0.0419,0.125,0.148,0.041,0.0388,0.0088,0.163,0.0724,0.292,0.0551,0.0008,-0.0221
"COc1cccc(OCCCN)c1-c1cc(Nc2cnc(C#N)cn2)n[nH]1 [Prexasertib] + C[C@@H]1COCCN1C2=NC(=NC(=C2)C3(CC3)[S@](=N)(=O)C)C4=C5C=CNC5=NC=C4 [AZD6738] (first compound max 1 µM, 7x7, partner max 10 µM)",-0.0542,-0.0294,-0.0238,-0.0625,-0.0076,0.0053,-0.0048,0.0026,-0.0423,-0.0349,-0.0001,-0.0656,-0.0402,-0.0603,0.0072,-0.0434,-0.0304,0.0209,-0.003,-0.0136
"COc1nnc2ccc(N3CCC(c4ccc(OCCN5CCN(C)C(=O)[C@H]5C)cc4)CC3)nn12 [AZD5153] + Cn1cnc2c(F)c(Nc3ccc(Br)cc3Cl)c(C(=O)NOCCO)cc21 [Selumetinib] (first compound max 1 µM, 7x7, partner max 10 µM)",-0.0838,0.123,-0.0807,0.0655,-0.0326,-0.0456,-0.0967,-0.0082,-0.0176,0.0602,-0.0506,0.0173,-0.0494,-0.0616,-0.0192,-0.0535,0.0132,0.0239,0.0322,0.0024
"Cc1c2c(nn1C)CSCc1cc(n(C)n1)CSc1cc(c3ccccc3c1)OCCCc1c(C(=O)O)n(C)c3c-2c(Cl)ccc13 [AZD5991] + C[C@@H]1COCCN1C2=NC(=NC(=C2)C3(CC3)[S@](=N)(=O)C)C4=C5C=CNC5=NC=C4 [AZD6738] (first compound max 1 µM, 7x7, partner max 10 µM)",0.0507,-0.0328,-0.0118,-0.0128,-0.0178,-0.0304,-0.0067,0.0789,0.014,0.0069,0.06,0.0151,0.0012,0.012,-0.0396,-0.0302,0.0305,0.0449,-0.0532,0.0115
